Three molecules from ChEMBL document CHEMBL1131371, “H-phosphonate derivatives as novel peptide deformylase inhibitors” (Bioorg Med Chem Lett, 1998) can be followed below.

Series [1] in a line: Compound was evaluated for inhibitory activity against Zn2+ deformylase.
In the next series the target is T1, Peptide deformylase (Escherichia coli, UniProt Q9JN24).
T1 sequence (Q9JN24 whole entry): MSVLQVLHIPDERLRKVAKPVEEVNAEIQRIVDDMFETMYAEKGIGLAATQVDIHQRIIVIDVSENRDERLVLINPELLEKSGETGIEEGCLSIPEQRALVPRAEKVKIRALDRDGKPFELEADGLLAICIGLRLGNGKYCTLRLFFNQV
Put plainly: Compound was evaluated for inhibitory activity against Peptide deformylase.

Substrate in series [2]: CCCC[C@H](O[PH](=O)O)C(=O)N[C@@H](CC(C)C)C(=O)Nc1ccc([N+](=O)[O-])cc1
Description: Apparent KM against enzyme peptide deformylase (PDF)

Usually Ki stands for a dissociation constant, usually derived from enzyme kinetics or from competition with a known ligand. Low values mean higher affinity, high ones lower affinity. Take `CCCC[C@H](O[PH](=O)O)C(=O)N[C@@H](CC(C)C)C(=O)Nc1ccc([N+](=O)[O-])cc1`: the figures for the Ki (in series [1]; on Peptide deformylase) were 76 µM and 37 µM, respectively.

`CCCC[C@@H](O[PH](=O)O)C(=O)N[C@@H](CC(C)C)C(=O)Nc1ccc([N+](=O)[O-])cc1`: the affinity on Peptide deformylase, expressed as Ki, was 125 µM.

B1: Peptide deformylase, mitochondrial (Homo sapiens), Q9HBH1 (protein)
chain: MARLWGALSLWPLWAAVPWGGAAAVGVRACSSTAAPDGVEGPALRRSYWRHLRRLVLGPPEPPFSHVCQVGDPVLRGVAAPVERAQLGGPELQRLTQRLVQVMRRRRCVGLSAPQLGVPRQVLALELPEALCRECPPRQRALRQMEPFPLRVFVNPSLRVLDSRLVTFPEGCESVAGFLACVPRFQAVQISGLDPNGEQVVWQASGWAARIIQHEMDHLQGCLFIDKMDSRTFTNVYWMKVND
The term Km denotes the concentration of substrate that gives half-maximal velocity. On to B1, for which the Km in series [2] turned out to be 20 µM.
